Test results taken from patent US7582611B2, “Motilide compounds” (Pfizer Inc., priority 2005, dated 2009).
≈ marks a conversion by molar mass, not a printed value.

Columns and labels:
[1] = test system: Streptococcus pneumoniae ATCC 6301; test: Evaluation of antibacterial activity (MIC, serial dilutions on 96-well microtiter plates); assay type: cell-based; conditions: ATCC6301, read-out: Antibacterial Activity (MIC, μg/mL)
[2] = target: T1, Motilin Receptor (Oryctolagus cuniculus, UniProt G1T803); test: Tissue based assay for motilin agonist potency (rabbit duodenum contractility); assay type: cell-based; conditions: rabbit duodenum strips, contraction normalized to 1 μM carbachol; read-out: Motilin Receptor Agonist Activity (EC50)
T1 construct: strips of longitudinal smooth muscle were sliced from the segments; from tissue; host or cells: rabbit duodenum longitudinal smooth muscle strips
Summary of the method: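 Longitudinal smooth-muscle strips of rabbit duodenum, mucosa removed, in oxygenated Krebs at 37 °C under 1.5 g tension; auxotonic contractions. Cumulative doses at ~2 min intervals, then 1 μM carbachol; responses minus basal tension, normalized to carbachol, fitted to R=(Rmax·C)/(EC50+C) for EC50.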

T1 sequence (G1T803 1-400): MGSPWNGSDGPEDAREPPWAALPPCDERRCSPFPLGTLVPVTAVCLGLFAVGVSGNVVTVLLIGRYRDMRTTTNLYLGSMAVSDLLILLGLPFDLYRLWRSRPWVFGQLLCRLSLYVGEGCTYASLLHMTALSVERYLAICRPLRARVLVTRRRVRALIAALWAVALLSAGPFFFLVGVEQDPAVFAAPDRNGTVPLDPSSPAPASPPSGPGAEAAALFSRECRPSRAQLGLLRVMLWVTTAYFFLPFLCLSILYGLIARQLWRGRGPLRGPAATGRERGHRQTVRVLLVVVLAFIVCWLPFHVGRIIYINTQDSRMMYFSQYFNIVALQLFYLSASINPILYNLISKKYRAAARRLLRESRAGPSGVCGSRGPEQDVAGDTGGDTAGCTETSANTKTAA

**Q.** What does the source list for `CCNC(=S)NCCO[C@@H]1[C@H](C)[C@@H](O)[C@](C)(O)[C@@H](CC)OC(=O)[C@H](C)[C@@H](O[C@H]2C[C@@](C)(OC)[C@@H](O)[C@H](C)O2)[C@H](C)[C@@H](O[C@@H]2O[C@H](C)C[C@H](N(C)C(C)C)[C@H]2O)[C@](C)(O)C[C@H]1C` [Compound A-67]?
**A.** MIC [1]: > 128 µg/mL; EC50 [2]: 220 nM

**Q.** With `CC[C@H]1OC(=O)[C@H](C)[C@@H](O[C@H]2C[C@@](C)(OC)[C@@H](O)[C@H](C)O2)[C@H](C)[C@@H](O[C@@H]2O[C@H](C)C[C@H](N(C)C(C)C)[C@H]2O)[C@](C)(O)C[C@@H](C)[C@H](OC(=O)N(C)C)[C@H](C)[C@@H](O)[C@H]1C` [Compound A-75] as the compound, how does the MIC [1] read?
**A.** > 128 µg/mL

**Q.** What about the EC50 [2] of the same compound?
**A.** 290 nM

**Q.** `CC[C@H]1OC(=O)[C@H](C)[C@@H](O[C@H]2C[C@@](C)(OC)[C@@H](O)[C@H](C)O2)[C@H](C)[C@@H](O[C@@H]2O[C@H](C)C[C@H](N(C)C(C)C)[C@H]2O)[C@@]2(C)CC(C)=C(O2)[C@H](C)C(=O)[C@]1(C)OC` [GM-611, reference compound] was tested. Which MIC [1] did it give?
**A.** 128 µg/mL (≈ 169 µM)

**Q.** And the EC50 [2]?
**A.** 11 nM

**Q.** How did the MIC [1] turn out when `CC[C@H]1OC(=O)[C@H](C)[C@@H](O[C@H]2C[C@@](C)(OC)[C@@H](O)[C@H](C)O2)[C@H](C)[C@@H](O[C@@H]2O[C@H](C)C[C@H](N(C)C(C)C)[C@H]2O)[C@](C)(O)C[C@@H](C)[C@H](OCCNC(=O)c2ccc3[nH]cnc3c2)[C@H](C)[C@@H](O)[C@]1(C)O` [Compound A-58] was run?
**A.** 128 µg/mL (≈ 135 µM)

**Q.** And the EC50 [2]?
**A.** 37 nM

**Q.** Which results are given for `CCOC(=O)CO[C@@H]1[C@H](C)[C@@H](O)[C@](C)(O)[C@@H](CC)OC(=O)[C@H](C)[C@@H](O[C@H]2C[C@@](C)(OC)[C@@H](O)[C@H](C)O2)[C@H](C)[C@@H](O[C@@H]2O[C@H](C)C[C@H](N(C)C(C)C)[C@H]2O)[C@](C)(O)C[C@H]1C` [Compound A-8]?
**A.** MIC [1]: 128 µg/mL (≈ 151 µM); EC50 [2]: 88 nM

**Q.** With `CC[C@H]1OC(=O)[C@H](C)[C@@H](O[C@H]2C[C@@](C)(OC)[C@@H](O)[C@H](C)O2)[C@H](C)[C@@H](O[C@@H]2O[C@H](C)C[C@H](N(C)C[C@H](C)O)[C@H]2O)[C@](C)(O)C[C@@H](C)[C@H](OCC(=O)N(C)C)[C@H](C)[C@@H](O)[C@]1(C)O` [Compound A-16] as the compound, how does the MIC [1] read?
**A.** > 128 µg/mL

**Q.** What about the EC50 [2] of the same compound?
**A.** 2900 nM

**Q.** Which results are given for `CC[C@H]1OC(=O)[C@H](C)[C@@H](O[C@H]2C[C@@](C)(OC)[C@@H](O)[C@H](C)O2)[C@H](C)[C@@H](O[C@@H]2O[C@H](C)C[C@H](N(C)C[C@H](C)O)[C@H]2O)[C@](C)(O)C[C@@H](C)[C@H](OCC(N)=O)[C@H](C)[C@@H](O)[C@]1(C)O` [Compound A-14]?
**A.** MIC [1]: > 128 µg/mL; EC50 [2]: 104 nM

**Q.** How did the MIC [1] turn out when `CC[C@H]1OC(=O)[C@H](C)[C@@H](O[C@H]2C[C@@](C)(OC)[C@@H](O)[C@H](C)O2)[C@H](C)[C@@H](O[C@@H]2O[C@H](C)C[C@H](N(C)CC(C)(C)O)[C@H]2O)[C@](C)(O)C[C@@H](C)[C@H](NS(C)(=O)=O)[C@H](C)[C@@H](O)[C@]1(C)O` [Compound A-37] was run?
**A.** 64 µg/mL (≈ 73.5 µM)

**Q.** And the EC50 [2]?
**A.** 52 nM

**Q.** Which results are given for `CC[C@H]1OC(=O)[C@H](C)[C@@H](OC2C[C@@](C)(OC)C[C@H](C)O2)[C@H](C)[C@@H](OC2O[C@H](C)C[C@H](N(C)CC)[C@H]2O)[C@@]2(C)CC(C)=C(O2)[C@H](C)[C@@H](O)[C@H]1C` (some centres unmarked) [ABT-229, reference compound]?
**A.** MIC [1]: 64 µg/mL (≈ 91.7 µM); EC50 [2]: 7 nM

**Q.** Which MIC [1] does the source give for `CCOC(=O)NCCO[C@@H]1[C@H](C)[C@@H](O)[C@](C)(O)[C@@H](CC)OC(=O)[C@H](C)[C@@H](O[C@H]2C[C@@](C)(OC)[C@@H](O)[C@H](C)O2)[C@H](C)[C@@H](O[C@@H]2O[C@H](C)C[C@H](N(C)C(C)C)[C@H]2O)[C@](C)(O)C[C@H]1C` [Compound A-64] here?
**A.** 64 µg/mL (≈ 72.8 µM)

**Q.** And the EC50 [2]?
**A.** 100 nM
